Reference: paper PMC8658022, “Towards Property Profiling: SYNTHESIS and SAR Probing of New Tetracyclic Diazaphenothiazine Analogues” (International Journal of Molecular Sciences, 2021)
Converted amounts (≈) assume the structure as drawn.

Experiments:
[1] = experimentally determined lipophilicity (logPTLC); format: physicochemical; conditions: thin-layer chromatography (TLC)
Source text: In order to examine the lipophilic profile of the investigated compounds, the empirically determined logPTLC parameters (see Table 1) were compared with the theoretically approximated lipophilicity coefficients (clogP) using an ensemble of in silico predictors, e.g., clogP, Molinspiration, Osiris, HyperChem 7.0, Sybyl-X, MarvinSketch 15, ACD/ChemSketch 2015, Dragon 6.0, Kowwin, XlogP3, ChemDraw and ACD/Percepta programs. Subsequently, the deduced clogP parameters were cross-compared with the experimental logPTLC and inter-correlated with each other as presented in Figure 5. A good correlation was obtained (r = 0.94) for the MarvinSketch-made clogP values and the empirical logPTLC was recorded, respectively. […] A quite high inter-correlation was observed among the programs for lipophilicity specification. Obviously, some variations in clogP values resulted from different in silico algorithms (atom/fragment- or descriptor-based) implemented in the programs and/or training data employed in the training step [33].

[2] = test system: A549 (human lung carcinoma); assay: WST-1 cell proliferation assay, A549; format: cell-based; conditions: mean ± std
Description: (§1) Compounds were evaluated for their antiproliferative activity using […] cultured cell lines: A549 (human lung carcinoma, ATCC, Manassas, VA, USA), SNB-19 (human glioblastoma, DSMZ, German Collection of Microorganisms and Cell Cultures), T-47D (human breast cancer, ATCC, Manassas, VA, USA) and NHDF (normal human dermal fibroblasts, ATCC, Manassas, VA, USA). The cultured cells were kept at 37 °C and 5% CO2. The cells were seeded (1 × 10^4 cells/well/100 μL DMEM supplemented with 10% FCS and streptomycin and penicillin) using 96-well plates (Corning). Cells were counted in a hemocytometer (Burker chamber) using a phase contrast Olympus IX50 microscope equipped with Sony SSC-DC58 AP camera and Olympus DP10 digital camera.
(§2) The antiproliferative effect of the compounds exerted on cancer and normal cells was determined using the Cell Proliferation Reagent WST-1 assay (Roche Molecular Biochemicals Mannheim, Germany). This assay is based on a colorimetric method using the enzymatic ability of viable cells to cause the bright red-colored stable tetrazolium monosodium salt [2-(4-iodophenyl)-3-(4-nitrophenyl)-5-(2,4-disulfophenyl)–2H-tetra-zolium] to transform into the dark red-colored soluble formazan. […] An increase in the amount of formazan dye formed correlated with the number of metabolically active cells in the culture. The formazan dye produced by metabolically active cells was quantified by absorbance reading at appropriate wavelengths. The examined cells were exposed to the tested compounds (1 mg/mL DMSO stock) for 72 h at various concentrations (0.1 μg/mL–100 μg/mL). The control was performed in order to eliminate the DMSO effect at the concentration used. Cell cultures were incubated with WST-1 (10 μL) for 1 h. The absorbance of the samples was measured against a background control at 450 nm using a microplate reader with a reference wavelength at 600 nm. The obtained results are expressed as the means of at least two independent experiments performed in triplicate. The antiproliferative activity of the tested compounds were compared to cisplatinum. The values of IC50 (a concentration of a compound that is required for 50% inhibition) were calculated from the dose-response relationship with respect to control.

[3] = test system: SNB-19 (human glioblastoma); assay: WST-1 cell proliferation assay, SNB-19; format: cell-based; conditions: mean ± std
Description: as §1, §2

[4] = test system: T47D (human breast cancer); assay: WST-1 cell proliferation assay, T47D; format: cell-based; conditions: 72 h exposure, mean ± std
Description: as §1, §2

[5] = test system: NHDF (normal human dermal fibroblasts); assay: WST-1 cell proliferation assay, NHDF normal cells; format: cell-based; conditions: normal cell line, 72 h exposure, mean ± std
Description: as §1, §2

[6] = test system: Staphylococcus aureus ATCC 29213; assay: broth dilution micro-method MIC, S. aureus ATCC 29213; format: cell-based; conditions: ATCC29213, 24 h, 37 °C
Description: (§3) The synthesized compounds were evaluated for in vitro antibacterial activity against representatives of multidrug-resistant bacteria and clinical isolates of methicillin-resistant Staphylococcus aureus (MRSA) 63718, SA 630, and SA 3202 that were obtained from the National Institute of Public Health (Prague, Czech Republic). S. aureus ATCC 29213 was used as a reference and quality control strain. Ampicillin (Sigma, St. Louis, MO, USA) was employed as the standard. Prior to testing, each strain was passaged onto nutrient agar (Oxoid, Basingstoke, UK) with 5% of bovine blood, and bacterial inocula were prepared by suspending a small portion of a bacterial colony in sterile phosphate-buffered saline (pH 7.2–7.3). The cell density was adjusted to 0.5 McFarland units using a densitometer (Densi-La-Meter, LIAP, Riga, Latvia). This inoculum was diluted to reach the final concentration of bacterial cells 5 × 10^5 CFU/mL in the wells. […] The final concentrations of the evaluated compounds ranged from 256 to 0.008 μg/mL. The broth dilution micro-method, modified according to the NCCLS (National Committee for Clinical Laboratory Standards) guidelines in Mueller–Hinton (MH) broth, was used to determine the minimum inhibitory concentration (MIC). Drug-free controls, sterility controls, and controls consisting of MH broth and DMSO alone were included. The determination of results was performed visually after 24 h of static incubation in the darkness at 37 °C in an aerobic atmosphere. Each experiment was repeated at least three times.

[7] = test system: methicillin-resistant S. aureus 63718; assay: broth dilution micro-method MIC, MRSA 63718; format: cell-based; conditions: Staphylococcus aureus, clinical isolate, 24 h, 37 °C
Description: as §3

[8] = test system: methicillin-resistant S. aureus SA 630; assay: broth dilution micro-method MIC, MRSA SA 630; format: cell-based; conditions: Staphylococcus aureus, clinical isolate, 24 h, 37 °C
Description: as §3

[9] = test system: methicillin-resistant S. aureus SA 3202; assay: broth dilution micro-method MIC, MRSA SA 3202; format: cell-based; conditions: Staphylococcus aureus, clinical isolate, 24 h, 37 °C
Description: as §3

MRSA isolates = assay: broth dilution micro-method MIC, MRSA isolates (pooled statement); format: cell-based; conditions: Staphylococcus aureus; range over three MRSA isolates and both compounds; read-out: MICs against MRSA isolates
Description: as §3, with “The determination of results was performed visually after 24 h of static incubation in the darkness at 37 °C in an aerobic atmosphere. Each experiment was repeated at least three times.” left out

[10] = Homo sapiens, A549, 72 h exposure
[11] = Homo sapiens, SNB-19, 72 h exposure

Row | SMILES | chromatographic logP [1] | IC50 [2, 10] | IC50 [3, 11] | IC50 ([4]; Homo sapiens, T47D) | MIC [6] | MIC [7] | MIC [8] | MIC [9] | MIC (MRSA isolates) | IC50 ([5]; Homo sapiens, NHDF) | IC50 ([2]; 72 h exposure) | IC50 ([3]; 72 h exposure) | IC50 [4] | IC50 [5]
1 | C[n+]1cc2c(c3ccccc31)Nc1cccnc1S2 [3a, 5-methyl-12H-quino[3,4-b]pyrido[5,6-e][1,4]thiazinium chloride] | 3.53 | 70.3 ± 9.8 µM | 132 ± 11.6 µM | 46.2 ± 7.1 µM | 212 µM | 212 µM | 106 µM | 212 µM |  | 21.1 ± 1.5 µM |  |  |  | 
2 | C[n+]1cc2c(c3ccccc31)Nc1cc(Br)cnc1S2 [3c, 10-bromo-5-methyl-12H-quino[3,4-b]pyrido[5,6-e][1,4]thiazinium chloride] | 4.57 | 20.6 ± 1.2 µM | 3.4 ± 0.2 µM | 12.2 ± 1.7 µM | 42.1 µM | 42.1 µM | 21.1 µM | 42.1 µM | 12.5 to 42.1 µM | 11 ± 1.4 µM |  |  |  | 
3 | C[n+]1cc2c(c3ccccc31)Nc1ccc(Cl)nc1S2 [3d, 9-chloro-5-methyl-12H-quino[3,4-b]pyrido[5,6-e][1,4]thiazinium chloride] | 4.62 | 2 ± 0.3 µM | 1.3 ± 0.1 µM | 2.3 ± 0.3 µM | 381 µM | 381 µM | 381 µM | 381 µM |  | 7.7 ± 0.5 µM |  |  |  | 
4 | Cc1cc(Cl)nc2c1Nc1c(c[n+](C)c3ccccc13)S2 [3g, 9-chloro-5,11-dimethyl-12H-quino[3,4-b]pyrido[5,6-e][1,4]thiazinium chloride] | 5.66 | 20 ± 1.6 µM | 3.5 ± 0.2 µM | 26.7 ± 1.6 µM | > 731 µM | > 731 µM | > 731 µM | > 731 µM |  | 3.8 ± 0.3 µM |  |  |  | 
5 | Cc1cc(F)nc2c1Nc1c(c[n+](C)c3ccccc13)S2 [3h, 9-fluoro-5,11-dimethyl-12H-quino[3,4-b]pyrido[5,6-e][1,4]thiazinium chloride] | 5.72 | 15.4 ± 1 µM | 126 ± 14.8 µM | 47.7 ± 2.8 µM | 383 µM | 383 µM | 383 µM | 383 µM |  | 28.5 ± 4 µM |  |  |  | 
6 | Cc1ccnc2c1Nc1c(c[n+](C)c3ccccc13)S2 [3i, 5,11-dimethyl-12H-quino[3,4-b]pyrido[5,6-e][1,4]thiazinium chloride] | 4.17 | 69.3 ± 5.3 µM | 22.1 ± 1.5 µM | 18.9 ± 1.4 µM | 203 µM | 203 µM | 101 µM | 203 µM |  | 0.4 ± 0.07 µM |  |  |  | 
7 | C[n+]1cc2c(c3ccccc31)Nc1cnccc1S2 [4a, 5-methyl-5H-qujino[3,4-b]pyrido[3,4-e][1,4]thiazinium chloride] | 2.93 | 30.1 ± 3.4 µM | 18.7 ± 1.2 µM | 36.8 ± 2.1 µM | 424 µM | 424 µM | 424 µM | 424 µM |  | 7.5 ± 0.2 µM |  |  |  | 
8 | CC1(C)S[C@@H]2[C@H](NC(=O)[C@H](N)c3ccccc3)C(=O)N2[C@H]1C(=O)O [AMP, Ampicillin, reference compound] |  |  |  |  | 5.72 µM (≈ 2 µg/mL) | 45.8 µM (≈ 16 µg/mL) | 45.8 µM (≈ 16 µg/mL) | 45.8 µM (≈ 16 µg/mL) |  |  |  |  |  | 
9 | N.N.[Cl][Pt][Cl] [cisplatinum, reference compound] |  |  |  |  |  |  |  |  |  |  | 3 ± 0.2 µM | 16.7 ± 1.3 µM | 9 ± 0.7 µM | 29.9 ± 3.3 µM

The next lines start with results.

Row | chromatographic logP [1] | IC50 [2, 10] | IC50 [3, 11] | IC50 ([4]; Homo sapiens, T47D) | MIC [6] | MIC [7] | MIC [8] | MIC [9] | MIC (MRSA isolates) | SMILES | IC50 ([5]; Homo sapiens, NHDF) | IC50 ([2]; 72 h exposure) | IC50 ([3]; 72 h exposure) | IC50 [4] | IC50 [5]
10 | 4.8 | 23.8 ± 1.7 µM | 4.1 ± 0.3 µM | 5.2 ± 0.4 µM | 337 µM | 337 µM | 337 µM | 337 µM |  | C[n+]1cc2c(c3ccccc31)Nc1ccc(Br)nc1S2 [3b, 9-bromo-5-methyl-12H-quino[3,4-b]pyrido[5,6-e][1,4]thiazinium chloride] | 0.8 ± 0.05 µM |  |  |  | 
11 | 4.24 | 2.1 ± 0.35 µM | 0.4 ± 0.08 µM | 2.8 ± 0.35 µM | 50.2 µM | 25.1 µM | 12.5 µM | 25.1 µM | 12.5 to 42.1 µM | C[n+]1cc2c(c3ccccc31)Nc1ccc(F)nc1S2 [3e, 9-fluoro-5-methyl-12H-quino[3,4-b]pyrido[5,6-e][1,4]thiazinium chloride] | 1.1 ± 0.14 µM |  |  |  | 
12 | 5.09 | 115 ± 10.7 µM | 62.5 ± 6.6 µM | 128 ± 18.2 µM | 299 µM | 299 µM | 299 µM | 299 µM |  | C[n+]1cc2c(c3ccccc31)Nc1ccc(I)nc1S2 [3f, 9-iodo-5-methyl-12H-quino[3,4-b]pyrido[5,6-e][1,4]thiazinium chloride] | 97.4 ± 6.2 µM |  |  |  | 
13 | 4.2 | 1.7 ± 0.1 µM | 6.1 ± 0.4 µM | 8.1 ± 1 µM | 193 µM | 193 µM | 96 µM | 193 µM |  | COc1ccc2c(n1)Sc1c[n+](C)c3ccccc3c1N2 [3j, 9-methoxy-5-methyl-12H-quino[3,4-b]pyrido[5,6-e][1,4]thiazinium chloride] | 2 ± 0.3 µM |  |  |  | 
